# Reference: the NIST ThermoML archive (doi:10.1021/je201009c)
# ± gives the expanded uncertainty stated by the source.
# Columns and labels:
# [1] = refractive index (Na D-line) (dimensionless); conditions: 101.33 kPa, Liquid, Standard Abbe refractometry
# [2] = for surface tension liquid-gas: Capillary rise; for viscosity / mass density: Liquid; for viscosity: Falling or rolling sphere viscometry; for mass density: Vibrating tube method
# [3] = xn = mol fraction of the nth substance listed; conditions: for surface tension liquid-gas: Capillary rise; for viscosity / mass density: Liquid; for viscosity: Falling or rolling sphere viscometry; for mass density: Vibrating tube method
# [4] = refractive index (Na D-line) (dimensionless); xn = mol fraction of the nth substance listed; conditions: Liquid, Standard Abbe refractometry
Compound,refractive index ([1]; 293.15 K),refractive index ([1]; 303.15 K),refractive index ([1]; 313.15 K),refractive index ([1]; 323.15 K),surface tension liquid-gas ([2]; 293.15 K) [mN/m],"viscosity ([2]; 293.15 K, 100.8 kPa) [mPa·s]","mass density ([2]; 293.15 K, 100.8 kPa) [kg/m3]",surface tension liquid-gas ([2]; 303.15 K) [mN/m],"viscosity ([2]; 303.15 K, 100.8 kPa) [mPa·s]","mass density ([2]; 303.15 K, 100.8 kPa) [kg/m3]",surface tension liquid-gas ([2]; 313.15 K) [mN/m],"viscosity ([2]; 313.15 K, 100.8 kPa) [mPa·s]","mass density ([2]; 313.15 K, 100.8 kPa) [kg/m3]",surface tension liquid-gas ([2]; 323.15 K) [mN/m],"viscosity ([2]; 323.15 K, 100.8 kPa) [mPa·s]","mass density ([2]; 323.15 K, 100.8 kPa) [kg/m3]","surface tension liquid-gas ([3]; 293.15 K, x1 = 1) [mN/m]","viscosity ([3]; 293.15 K, 100.8 kPa, x1 = 1) [mPa·s]","mass density ([3]; 293.15 K, 100.8 kPa, x1 = 1) [kg/m3]","surface tension liquid-gas ([3]; 303.15 K, x1 = 1) [mN/m]",further results
CCO [ethanol],1.36137 ± 0.001,1.35712 ± 0.001,1.35292 ± 0.001,1.34873 ± 0.001,22.3 ± 0.4,1.183 ± 0.018,789.1 ± 0.19,21.4 ± 0.4,0.98 ± 0.018,780.76 ± 0.2,20.6 ± 0.4,0.822 ± 0.017,771.99 ± 0.2,19.4 ± 0.4,0.698 ± 0.017,763.03 ± 0.2,–,–,–,–,–
CCO [ethanol] + CC(=O)OCc1ccccc1,–,–,–,–,–,–,–,–,–,–,–,–,–,–,–,–,22.3 ± 0.4,1.183 ± 0.018,789.1 ± 0.19,21.4 ± 0.4,"viscosity ([3]; 303.15 K, 100.8 kPa, x1 = 1): 0.98 ± 0.018 mPa·s; mass density ([3]; 303.15 K, 100.8 kPa, x1 = 1): 780.76 ± 0.2 kg/m3; surface tension liquid-gas ([3]; 313.15 K, x1 = 1): 20.6 ± 0.4 mN/m; viscosity ([3]; 313.15 K, 100.8 kPa, x1 = 1): 0.822 ± 0.017 mPa·s; mass density ([3]; 313.15 K, 100.8 kPa, x1 = 1): 771.99 ± 0.2 kg/m3; surface tension liquid-gas ([3]; 323.15 K, x1 = 1): 19.4 ± 0.4 mN/m; viscosity ([3]; 323.15 K, 100.8 kPa, x1 = 1): 0.698 ± 0.017 mPa·s; mass density ([3]; 323.15 K, 100.8 kPa, x1 = 1): 763.03 ± 0.2 kg/m3; refractive index ([4]; 293.15 K, 100.8 kPa, x1 = 1): 1.36137 ± 0.001; refractive index ([4]; 303.15 K, 100.8 kPa, x1 = 1): 1.35712 ± 0.001; refractive index ([4]; 313.15 K, 100.8 kPa, x1 = 1): 1.35292 ± 0.001; refractive index ([4]; 323.15 K, 100.8 kPa, x1 = 1): 1.34873 ± 0.001"
CCO [ethanol] + OCc1ccccc1,–,–,–,–,–,–,–,–,–,–,–,–,–,–,–,–,22.3 ± 0.4,1.183 ± 0.018,789.1 ± 0.2,21.4 ± 0.4,"viscosity ([3]; 303.15 K, 100.8 kPa, x1 = 1): 0.98 ± 0.018 mPa·s; mass density ([3]; 303.15 K, 100.8 kPa, x1 = 1): 780.76 ± 0.2 kg/m3; surface tension liquid-gas ([3]; 313.15 K, x1 = 1): 20.6 ± 0.4 mN/m; viscosity ([3]; 313.15 K, 100.8 kPa, x1 = 1): 0.822 ± 0.017 mPa·s; mass density ([3]; 313.15 K, 100.8 kPa, x1 = 1): 771.99 ± 0.2 kg/m3; surface tension liquid-gas ([3]; 323.15 K, x1 = 1): 19.4 ± 0.4 mN/m; viscosity ([3]; 323.15 K, 100.8 kPa, x1 = 1): 0.698 ± 0.017 mPa·s; mass density ([3]; 323.15 K, 100.8 kPa, x1 = 1): 763.03 ± 0.2 kg/m3; refractive index ([4]; 293.15 K, 100.8 kPa, x1 = 1): 1.36137 ± 0.001; refractive index ([4]; 303.15 K, 100.8 kPa, x1 = 1): 1.35712 ± 0.001; refractive index ([4]; 313.15 K, 100.8 kPa, x1 = 1): 1.35292 ± 0.001; refractive index ([4]; 323.15 K, 100.8 kPa, x1 = 1): 1.34873 ± 0.001"
CC(=O)OCc1ccccc1 [benzyl ethanoate],1.50245 ± 0.0011,1.49776 ± 0.0011,1.49309 ± 0.0011,1.48834 ± 0.0011,37.3 ± 0.5,2.324 ± 0.026,1055.81 ± 0.3,35.6 ± 0.4,1.836 ± 0.023,1046.74 ± 0.29,34.3 ± 0.4,1.474 ± 0.021,1037.42 ± 0.29,33.2 ± 0.4,1.256 ± 0.02,1027.51 ± 0.28,–,–,–,–,"viscosity ([2]; 293.15 K, 101 kPa): 2.324 ± 0.026 mPa·s; mass density ([2]; 293.15 K, 101 kPa): 1055.81 ± 0.3 kg/m3; viscosity ([2]; 303.15 K, 101 kPa): 1.836 ± 0.023 mPa·s; mass density ([2]; 303.15 K, 101 kPa): 1046.74 ± 0.29 kg/m3; viscosity ([2]; 313.15 K, 101 kPa): 1.474 ± 0.021 mPa·s; mass density ([2]; 313.15 K, 101 kPa): 1037.42 ± 0.29 kg/m3; viscosity ([2]; 323.15 K, 101 kPa): 1.256 ± 0.02 mPa·s; mass density ([2]; 323.15 K, 101 kPa): 1027.51 ± 0.28 kg/m3"
OCc1ccccc1 [benzenemethanol],1.54049 ± 0.001,1.53635 ± 0.001,1.53215 ± 0.001,1.52796 ± 0.001,39.2 ± 0.4,6.287 ± 0.054,1045.44 ± 0.19,38.1 ± 0.4,4.579 ± 0.041,1037.45 ± 0.18,37.2 ± 0.4,3.335 ± 0.031,1029.61 ± 0.18,36.3 ± 0.4,2.545 ± 0.026,1021.5 ± 0.18,–,–,–,–,"viscosity ([2]; 293.15 K, 101 kPa): 6.287 ± 0.054 mPa·s; mass density ([2]; 293.15 K, 101 kPa): 1045.44 ± 0.19 kg/m3; viscosity ([2]; 303.15 K, 101 kPa): 4.579 ± 0.041 mPa·s; mass density ([2]; 303.15 K, 101 kPa): 1037.45 ± 0.18 kg/m3; viscosity ([2]; 313.15 K, 101 kPa): 3.335 ± 0.031 mPa·s; mass density ([2]; 313.15 K, 101 kPa): 1029.61 ± 0.18 kg/m3; viscosity ([2]; 323.15 K, 101 kPa): 2.545 ± 0.026 mPa·s; mass density ([2]; 323.15 K, 101 kPa): 1021.5 ± 0.18 kg/m3"
OCc1ccccc1 [benzenemethanol] + CC(=O)OCc1ccccc1,–,–,–,–,–,–,–,–,–,–,–,–,–,–,–,–,–,–,–,–,"surface tension liquid-gas ([3]; 293.15 K, x2 = 0): 39.2 ± 0.4 mN/m; viscosity ([3]; 293.15 K, 101 kPa, x2 = 0): 6.287 ± 0.054 mPa·s; mass density ([3]; 293.15 K, 101 kPa, x2 = 0): 1045.44 ± 0.19 kg/m3; surface tension liquid-gas ([3]; 303.15 K, x2 = 0): 38.1 ± 0.4 mN/m; viscosity ([3]; 303.15 K, 101 kPa, x2 = 0): 4.579 ± 0.041 mPa·s; mass density ([3]; 303.15 K, 101 kPa, x2 = 0): 1037.45 ± 0.18 kg/m3; surface tension liquid-gas ([3]; 313.15 K, x2 = 0): 37.2 ± 0.4 mN/m; viscosity ([3]; 313.15 K, 101 kPa, x2 = 0): 3.335 ± 0.031 mPa·s; mass density ([3]; 313.15 K, 101 kPa, x2 = 0): 1029.61 ± 0.18 kg/m3; surface tension liquid-gas ([3]; 323.15 K, x2 = 0): 36.3 ± 0.4 mN/m; viscosity ([3]; 323.15 K, 101 kPa, x2 = 0): 2.545 ± 0.026 mPa·s; mass density ([3]; 323.15 K, 101 kPa, x2 = 0): 1021.5 ± 0.18 kg/m3; refractive index ([4]; 293.15 K, 101 kPa, x2 = 0): 1.54049 ± 0.00033; refractive index ([4]; 303.15 K, 101 kPa, x2 = 0): 1.53635 ± 0.00033; refractive index ([4]; 313.15 K, 101 kPa, x2 = 0): 1.53215 ± 0.00033; refractive index ([4]; 323.15 K, 101 kPa, x2 = 0): 1.52796 ± 0.00033"
